Measurements reported in article PMC11945079, “Gadolinium Complex with Tris-Hydroxypyridinone as an Input for New Imaging Probes: Thermodynamic Stability, Molecular Modeling and Biodistribution” (Molecules, 2025).
Where two headings read alike, the source gives them in different places.

Columns and labels:
[1] = Potentiometric titration of the ligand alone: protonation constants and species distribution; type: physicochemical
Method: (§1) All the studies were performed by potentiometric titrations of the ligand alone or in the presence of a 1:1 Gd/L stoichiometric ratio (Figure 1), which allowed for the determination of the protonation constants of KEMPPr(3,4-HP)3, as well as the stability constants of the formed Gd(III) complexes, from the best fitting of the experimental curves with the Hyperquad program (Table 1). Other Gd-to-ligand molar ratios were not considered in the present study, because it was admitted that species with a 1:2 stoichiometric ratio are present only at quite low concentrations for pH ca 7 [10].
The compound KEMPPr(3,4-HP)3 was synthesized according to the previously published procedure. The GdCl3 stock solution (9.8 × 10^−3 M) was prepared from the gadolinium salt in HCl 0.1 M medium to avoid hydrolysis, and standardized by inductively coupled plasma emission (ICP). The 0.1 M HCl solution used in the calibration of the glass electrode was obtained from a Titrisol ampoule (Merck, Darmstadt, Germany). The precise amount of HCl in the Gd(III) solution was determined by the standard-addition method using 0.1 M HCl (Titrisol). The titrant solution used in the potentiometric titrations was obtained from a carbonate-free 0.1 M KOH commercial ampoule (Titrisol) and standardized by titration with potassium hydrogen phthalate, and rejected whenever the percentage of carbonate (Gran’s method) was higher than 1% of the total amount of base. The potentiometric studies were performed with an automated potentiometric apparatus containing a Crison micropH 2002 millivoltimeter, a Crison microBu 2031 burette (Crison Instruments, Barcelona, Spain) and a Haake thermostatic bath (Haake Technik GmbH, Vreden, Germany, T = 25.0 ± 0.1 °C), controlled by the PASAT program. The glass and Ag/AgCl reference electrodes were previously conditioned in different DMSO/water mixtures of an increasing DMSO % composition (until 50%) and the response of the glass electrode was measured through the determination of the Nernst parameters by Gran’s method, obtained from strong acid–strong base (HCl/KOH) calibrations. […]
The stepwise protonation constants, Ki = [HiL]/[Hi−1L][H] of the ligand, and the global stability constants of the Gd(III) complex, β (GdmHhL) = [GdmHhLl]/[Gd]^m[H]^h[L]^l, were calculated by fitting the potentiometric data with the Hyperquad 2003 software. The gadolinium hydrolysis model and ionic product of water (Kw) were determined under the same experimental conditions (50% (w/w) DMSO/water medium, I = 0.1 M KCl, T = 25.0 ± 0.1 °C) and the values obtained for the stability constants (log β (GdH−2) = −15.17, log β (GdH−3) = −24.06) were included in the equilibrium model as well as the value of Kw (10^−14.95). […]

[2] = Potentiometric titration of the 1:1 Gd/L system: stability constants of the Gd(III) complexes, pGd, species distribution; type: physicochemical
Method: as §1
Analysis of the potentiometric titration curves (Figure 1), namely those obtained for the Gd(III)/KEMPPr(3,4-HP)3 system under 1:1 (Gd/L) stoichiometry, evidences a change in the deprotonation profile of the ligand due to its coordination to Gd (III). Since some precipitation was detected above pH = 6, the corresponding experimental points were not used in the calculations to obtain the Gd (III) complexation model. The obtained Gd(III) complexation model presents some similarities to that previously found for H3L2 (see Table 1), firstly involving the formation of a bis-chelated GdH4L^4+ species, a GdH2L^2+ tetra-chelated complex, and afterwards the formation of a neutral hexa-coordinated GdL species. […] Concerning the Gd(III)/H3L2 system (in water, CL = CGd = 3.2 × 10^−4 M), the Gd(III) complexation also begins at pH ca 2, and the GdL species forms at pH ca 3.7 and becomes dominant at pH 4.5 [11]. For the Gd (III)/NTP (PrHP)3 system (in water), the GdL species is not involved in the proposed model.
The compound KEMPPr(3,4-HP)3 was synthesized according to the previously published procedure. The GdCl3 stock solution (9.8 × 10^−3 M) was prepared from the gadolinium salt in HCl 0.1 M medium to avoid hydrolysis, and standardized by inductively coupled plasma emission (ICP). The 0.1 M HCl solution used in the calibration of the glass electrode was obtained from a Titrisol ampoule (Merck, Darmstadt, Germany). The precise amount of HCl in the Gd(III) solution was determined by the standard-addition method using 0.1 M HCl (Titrisol). The titrant solution used in the potentiometric titrations was obtained from a carbonate-free 0.1 M KOH commercial ampoule (Titrisol) and standardized by titration with potassium hydrogen phthalate, and rejected whenever the percentage of carbonate (Gran’s method) was higher than 1% of the total amount of base. The potentiometric studies were performed with an automated potentiometric apparatus containing a Crison micropH 2002 millivoltimeter, a Crison microBu 2031 burette (Crison Instruments, Barcelona, Spain) and a Haake thermostatic bath (Haake Technik GmbH, Vreden, Germany, T = 25.0 ± 0.1 °C), controlled by the PASAT program. The glass and Ag/AgCl reference electrodes were previously conditioned in different DMSO/water mixtures of an increasing DMSO % composition (until 50%) and the response of the glass electrode was measured through the determination of the Nernst parameters by Gran’s method, obtained from strong acid–strong base (HCl/KOH) calibrations.
Potentiometric titrations of compound KEMPPr(3,4-HP)3, in the absence or presence of Gd(III), were performed in 50% (w/w) DMSO/water medium at an ionic strength (I) of 0.1 M KCl, T = 25.0 ± 0.1 °C, using 0.1 M KOH titrant. Each titration was repeated three times, for which the total volume was 20 mL, the total concentration of ligand (CL) was 3.2 × 10^−4 M and the Gd^3+/KEMPPr(3,4-HP)3 molar ratios were 0:1 and 1:1.
The stepwise protonation constants, Ki = [HiL]/[Hi−1L][H] of the ligand, and the global stability constants of the Gd(III) complex, β (GdmHhL) = [GdmHhLl]/[Gd]^m[H]^h[L]^l, were calculated by fitting the potentiometric data with the Hyperquad 2003 software. […]

[3] = Literature Gd(III) complex stability constants and pGd of comparison ligands; type: physicochemical; conditions: pH = 7, CL = 10^−5 M, CL/CGd = 10, from constants in water
[4] = cited from earlier work; for pGd: pH 7.4
[5] = in water; cited from earlier work
[6] = physiological pH (7.4), 50% (w/w) DMSO/water
[7] = 50% w/w DMSO/water, CL = 3.2 × 10^−4 M, 1:1
[8] = 50% w/w DMSO/water, T = 25.0 ± 0.1 °C, I = 0.1 M KCl
[9] = in water, CL = CGd = 3.2 × 10^−4 M

Cc1c(O)c(=O)ccn1CCCNC(=O)C1(C)CC(C)(C(=O)NCCCn2ccc(=O)c(O)c2C)CC(C)(C(=O)NCCCn2ccc(=O)c(O)c2C)C1 (centres unmarked) [KEMPPr(3,4-HP)3]
difference between log K2 and log K3 ([1]; 50% w/w DMSO/water): 1.1
composition of the solution: H3L species [1, 6]: 99.95%
composition of the solution: monocharged H4L^+ species [1, 6]: 0.05%
pH range of predominance of the neutral H3L species ([1]; species distribution, CL = 3.2 × 10^−4 M, 50% (w/w) DMSO/water): 3.4–9.9
pH at which Gd(III) complexation begins [2, 7]: ~2
pH at which the GdL complex becomes prevalent [2, 7]: 4.8
pH at which the neutral GdL complex begins to form [2, 7]: ~3.5
log β (GdmHhLl), (m,h,l) = (1,0,1) (log β GdL) [2, 8]: 26.59(8)
log β (GdmHhLl), (m,h,l) = (1,1,1) [2, 8]: 31.30(4)
log β (GdmHhLl), (m,h,l) = (1,2,1) [2, 8]: 35.17(7)
log β (GdmHhLl), (m,h,l) = (1,4,1) [2, 8]: 41.35(8)
log β (GdmHhLl), (m,h,l) = (1,0,1) (log β GdL) ([2]; 50% w/w DMSO/water, T = 25.0 ± 0.1 °C, I = 0.1 M KCl, listed as H3L): 26.59
pGd (−log [Gd(III)]) ([2]; pH = 6, CL = 10^−5 M, CL/CGd = 10, 50% w/w DMSO/water): 13.2

Cc1c(O)c(=O)ccn1CCCNC(=O)CCN(CCC(=O)NCCCn1ccc(=O)c(O)c1C)CCC(=O)NCCCn1ccc(=O)c(O)c1C [NTP(PrHP)3]
pGd (−log [Gd(III)]) [3]: 12.3
log β (GdmHhLl), (m,h,l) = (1,1,1) (log KGdHL) ([4]; in water): 26.35
log β (GdmHhLl), (m,h,l) = (1,2,1) ([4]; in water): 31.16
log β (GdmHhLl), (m,h,l) = (1,3,1) ([4]; in water): 35.69
log β (GdmHhLl), (m,h,l) = (1,3,2) ([4]; in water): 52.3
log β (GdmHhLl), (m,h,l) = (1,4,1) ([4]; in water): 39.46
log β (GdmHhLl), (m,h,l) = (1,5,1) ([4]; in water): 42.8
log β (GdmHhLl), (m,h,l) = (1,5,2) ([4]; in water): 65.3

Cn1ccc(C(=O)NCCN(CCNC(=O)c2ccn(C)c(=O)c2O)CCNC(=O)c2ccn(C)c(=O)c2O)c(O)c1=O [TREN-1-Me-3,2-HOPO]
log KGdL (thermodynamic stability of the Gd(III) complex) [4]: 19.2

O=C(O)CN1CCN(CC(=O)O)CCN(CC(=O)O)CCN(CC(=O)O)CC1 [DOTA, 1,4,7,10-tetraazacyclododecane N,N′,N″,N‴-tetra-acetic acid]
pGd [4]: 20.4

Cc1c(O)c(=O)ccn1CCCNC(=O)CCC(CCC(=O)NCCCn1ccc(=O)c(O)c1C)(CCC(=O)NCCCn1ccc(=O)c(O)c1C)[N+](=O)[O-] [H3L2]
difference between log K4 and log K5 [5]: 1.15
pH at which Gd(III) complexation begins [4, 9]: ~2
pH at which the GdL species becomes dominant [4, 9]: 4.5
pH at which the GdL species forms [4, 9]: ~3.7
log β (GdmHhLl), (m,h,l) = (1,0,1) (log KGdL) ([4]; in water): 21.22(5)
log β (GdmHhLl), (m,h,l) = (1,2,1) ([4]; in water): 30.03(6)
log β (GdmHhLl), (m,h,l) = (1,4,1) ([4]; in water): 37.74(4)
pGd (−log [Gd(III)]) ([4]; pH = 7, CL = 10^−5 M, CL/CGd = 10, in water): 14.3

O=C(O)CN(CCN(CC(=O)O)CC(=O)O)CCN(CC(=O)O)CC(=O)O [DTPA, diethylenetriamine penta-acetic acid]
pGd [4]: 19.1
